Tests used:
[1] = system: NMDARs; experiment: Whole-cell recordings of modulation at +40 mV and -60 mV (voltage dependence); format: cell-based, rat; conditions: 10 µM test compound
Description: Figure 4. The association and dissociation time course of EU1794-2, EU1794-4 and EU1794-27 differ at GluN1/GluN2A and GluN1/GluN2D. (A) Representative whole-cell current recordings of GluN1/GluN2D NMDARs exemplifying the modulation time course of EU1794-2, EU1794-4 and EU1794-27 (1, 3, 10 µM). […] Insets show the steady state modulation extent from the HEK cell experiments fit by the Hill equation (Hill slope fixed to 1). (B) Analysis of the time course for the onset of PAM and NAM action as a function of concentrations for EU1794-2 (left), EU1794-4 (left) and EU1794-27 (right) used to determine the association rate kON (black circles) and dissociation rate kOFF (grey squares), from which we can calculate Kd for each modulator. Data are from at least 3 cells for each concentration of modulator. For EU1794-27 the association and dissociation rate linear component was also found to be concentration dependent (mon = −0.98 pA/(ms*µM), moff = 0.62 pA/(ms*µM)). (C,D) Similar set of panels as A,B but examining EU1794-2, EU1794-4 and EU1794-27 modulation of GluN1/GluN2A. In example recordings, all modulator concentrations are 10 µM. Data are from at least 3 cells for each concentration of modulator. For EU1794-27 time-course was fitted with the sum of an exponential and linear function, and both the time constant and slope were concentration dependent (mon = −0.33 pA/(s*µM), moff = 0.16 pA/(s*µM)). Figure 4—figure supplement 1. The actions of EU1794 modulators are voltage-independent and are influenced by the desensitization level. (A–C) A representative current response of EU1794-2 (A, the ratio of the % modulation by EU1794-2 at +40 mV and −60 mV was 1.1 ± 0.27, n = 3), EU1794-4 (B, the ratio of modulation at +40 mV and −60 mV was 0.88 ± 0.06, n = 6) and EU1794-27 (C, the ratio of modulation at +40 mV and −60 mV was 0.99 ± 0.15, n = 3) modulation with the Vm held at +40 mV and −60 mV; all responses shown were using 10 µM of test compound. […]

[2] = Racemization time course of enantiomers in working solution (functional assessment); format: physicochemical; conditions: standard experimental (aqueous working) solution
From the text: The enantiomers of EU1794-27 were separated to determine whether the racemic activity reflected the actions of only one enantiomer (see Supplemental methods). (-)-EU1794-27 potentiated NMDAR responses similarly to the racemic mixture (Figure 8—figure supplement 1A, Table 7). […] We previously reported ([Katzman et al., 2015]) that purified enantiomers were likely to racemize in aqueous solutions, which should proceed by a first-order reaction dependent on multiple factors such as ionic strength, pH, buffer, etc. ([Smith et al., 1978]). Thus, to quantitatively determine if racemization would impact our experiments using the enantiomers, we performed a functional assessment of this property in our standard experimental solution. […] Both enantiomers of EU1794-4 inhibited NMDAR responses, but with different potencies (Figure 8—figure supplement 1C, Supplementary File 2). […] All enantiomer studies, other than the racemization time-course, were performed rapidly to minimize any racemization, being completed in less than 80 min after making the aqueous solution of modulator.
Figure 8. The enantiomers of EU1794-4 and EU1794-27 have different action. […] (C) Single concentration competition experiments illustrating an interaction between both enantiomers of EU1794-4 (+and -) and the positive modulating enantiomer of EU1794-27 (-) at GluN1/GluN2D. […] Figure 8—figure supplement 1. […]

SMILES	ratio of the % modulation at +40 mV and −60 mV [1]	half-life at 10 µM [2]
CCOC(=O)c1c(NC(=O)CC2SC(=N)NC2=O)sc2c1CCC(C)C2 (centres unmarked) [EU1794-2, ethyl 2-(2-(2-imino-4-oxothiazolidin-5-yl)acetamido)-6-methyl-4,5,6,7-tetrahydrobenzo[b]thiophene-3-carboxylate]	1.1 ± 0.27	
CCOC(=O)c1c(NC(=O)CC2SC(=N)NC2=O)sc2c1CCCC2 (centres unmarked) [EU1794-4, ethyl 2-(2-(2-imino-4-oxothiazolidin-5-yl)acetamido)-4,5,6,7-tetrahydrobenzo[b]thiophene-3-carboxylate]	0.88 ± 0.06	3.27 h
CC(C)(C)OC(=O)c1c(NC(=O)CC2SC(=N)NC2=O)sc2c1CCCC2 (centres unmarked) [EU1794-27, tert-butyl 2-(2-(2-imino-4-oxothiazolidin-5-yl)acetamido)-4,5,6,7-tetrahydrobenzo[b]thiophene-3-carboxylate]	0.99 ± 0.15	3.28 h

— paper PMC5967867, “An NMDAR positive and negative allosteric modulator series share a binding site and are interconverted by methyl groups” (eLife, 2018)
